# From article PMC12763877 (Journal of Experimental & Clinical Cancer Research : CR, 2025)
# Experiments:
# [1] = system: STING signaling pathway in HUVEC; experiment: Western blot of STING pathway proteins; assay type: cell-based, human; settings: 48 h
# Procedure: Total protein was extracted using RIPA lysis buffer (Solarbio, China) supplemented with phenylmethylsulfonyl fluoride (PMSF; Thermo Fisher Scientific, USA), protease inhibitor cocktail (Roche, Switzerland), and phosphatase inhibitor cocktail (Roche, Switzerland). Protein concentration was determined using a BCA protein assay kit (Thermo Fisher Scientific, USA). Equal amounts of protein were separated by 10% SDS-polyacrylamide gel electrophoresis (SDS-PAGE) and transferred onto nitrocellulose (NC) membranes. […] All primary antibodies were purchased from Cell Signaling Technology (CST, USA), except for GAPDH, which was obtained from Proteintech (Wuhan, China). After washing, the membranes were incubated with HRP-conjugated goat anti-rabbit or anti-mouse IgG secondary antibodies (Biosharp, China) for 1 h at room temperature. Protein bands were visualized using an enhanced chemiluminescence (ECL) detection system and scanned using a chemiluminescence imaging system.
# [2] = system: 4T1 orthotopic breast tumor vasculature; experiment: Tumor vascular normalization in breast cancer mouse model (immunofluorescence, lectin perfusion, HIF-1α IHC, H&E); assay type: in vivo, BALB/c mice
# Procedure: The tumor tissues were then excised. […] All animals were raised in an SPF environment. […] We followed all the rules and regulations.
# Paraffin-embedded mouse tumor tissue sections were deparaffinized, rehydrated, and fixed with 4% paraformaldehyde at room temperature for 20 min. After washing with PBS, the sections were permeabilized with 1% Triton X-100 (Solarbio, China) for 15 min at room temperature, followed by blocking with 5% bovine serum albumin (BSA) in PBS containing 0.1% Triton X-100 for 1 h at room temperature to reduce nonspecific binding. The sections were first incubated with primary antibodies against PECAM-1 (CD31) and α-smooth muscle actin (α-SMA), including Alexa Fluor 488-conjugated anti-CD31 antibody (clone SC-376764-AF488, Santa Cruz Biotechnology, […]) and rabbit anti-α-SMA antibody (catalog no. AF0048, Beyotime Biotechnology, China). After washing, the sections were further incubated overnight at 4 °C with primary antibodies against dsDNA and HSP60. The next day, the sections were incubated with Alexa Fluor 647-conjugated goat anti-rabbit IgG (H + L) secondary antibody (catalog no. A0468, Beyotime Biotechnology, China) for 1 h at room temperature in the dark. Nuclear staining was performed using DAPI (catalog no. C0060, Solarbio, China). Finally, all slides were mounted with antifade mounting medium and observed using a […] 5 confocal microscope (Leica Microsystems, Germany).
# Immunohistochemical staining was performed on formalin-fixed, paraffin-embedded tissue sections. After deparaffinization and rehydration, antigen retrieval was conducted by heating the sections in citrate buffer (pH 6.0) at 95 °C for 12 min. Endogenous peroxidase activity was blocked by incubation with 3% hydrogen peroxide for 10 min at room temperature, followed by blocking of non-specific binding sites with 10% goat serum for 30 min at room temperature. The sections were then incubated overnight at 4 °C with a primary antibody against HIF-1α (rabbit anti-human, catalog no. 48085 T, Cell Signaling Technology, USA) diluted at 1:200. After washing, the sections were incubated with HRP-conjugated goat anti-rabbit IgG secondary antibody (catalog no. A0208, Beyotime Biotechnology, China) at a dilution of 1:500 for 30 min at room temperature. Color development was achieved using a DAB substrate kit, and the sections were counterstained with hematoxylin. After dehydration, clearing, and mounting with neutral resin, the stained sections were observed and imaged under an inverted microscope.
# To quantitatively assess vascular maturation, we performed dual immunofluorescence staining for the endothelial cell marker CD31 and pericyte marker α-SMA in tumor tissues. […] In addition, vascular perfusion indicates their transmission function is crucial for the delivery of chemotherapeutic and […] agents. To evaluate the effect of candesartan on tumor vascular perfusion function, DyLight™649-labeled tomato lectin (40 mg/kg), which specifically labels perfused blood vessels, was injected into the mice via tail vein injection 1.5 h before sacrifice. Then, perform frozen sectioning of the tumor tissue, microvessels were labeled with CD31 by immunofluorescence, and the co-expression percentage of tomato lectin and CD31^+ was observed and calculated. As shown in Fig. 4C-D, only a small fraction of CD31^+ blood vessels in the control group were coated with tomato lectin, with a low percentage of CD31^+Lectin^+.
# HUVEC [3] = experiment: Annexin V-FITC/PI apoptosis assay (flow cytometry); assay type: cell-based, human; settings: 3.75-15 µM
# Description: The Annexin V-FITC/PI Apoptosis Detection Kit (Vazyme) was used to detect cell apoptosis according to the manufacturer’s instructions. Cells were stained with the kit and then analyzed using flow cytometry (Becton Dickinson [BD]).
# zebrafish embryos = experiment: Zebrafish embryo toxicity; assay type: in vivo, zebrafish (Danio rerio); settings: embryos exposed 12 to 48 hpf, survival
# Procedure: Transgenic zebrafish Tg(flk: EGFP) were obtained from the China Zebrafish Resource Center and maintained at 28 ± 1 °C under a 14-hour light/10-hour dark cycle. […] Survival rates were recorded to calculate the median lethal concentration (LC₅₀). For the retinal angiogenesis assay, embryos at 1 day post fertilization (dpf) were transferred to E3 medium containing 5 mM CoCl₂·6 H₂O and 2.5 µg/mL GS4012 to induce hypoxia and abnormal vessel formation. At 3 dpf, test compounds were added and incubation continued until 5 dpf. Blank, model, and vehicle (≤ 0.1% DMSO) controls were included, with at least three replicates per group (n = 10–15 embryos). At 5 dpf, retinal vasculature was imaged using fluorescence microscopy and analyzed for branching number, vessel length, and density using ImageJ. Data are presented as mean ± standard deviation (SD) and analyzed using one-way ANOVA followed by Tukey’s post hoc test, with p < 0.05 considered statistically significant.
# The zebrafish (Danio rerio) model was employed due to its distinct advantages, the optical transparency, which enable in vivo vascular visualization. […] Firstly, the 8 candidate compounds underwent preliminary toxicity evaluation in zebrafish embryos. […] At 48 hpf, the number of surviving embryos was quantified, and the lethal dose 50 (LD50) for each compound was determined based on the survival data. […]
# HUVEC [4] = experiment: ROS generation assay (DCFH-DA flow cytometry); assay type: cell-based, human; settings: 3.75-15 µM
# Procedure: Flow cytometry was performed to measure intracellular reactive oxygen species (ROS) levels using DCFH-DA (2’,7’-Dichlorodihydrofluorescein diacetate). Cells were collected and stained with DCFH-DA, followed by incubation at 37℃ for 30 min in the dark. Subsequently, the cell populations were analyzed by flow cytometry.
smiles,measurement,setting,value
"CCOc1nc2cccc(C(=O)O)c2n1Cc1ccc(-c2ccccc2-c2nnn[nH]2)cc1 [Compound A-2, Candesartan]","STING, p-TBK1/TBK1 and p-IRF3/IRF3 levels",[1],dose-dependent upregulation
same,Percentage of CD31+Lectin+ (vascular perfusion),"[2]; 10 mg/kg and 30 mg/kg, tomato lectin",significantly increased
same,Coverage of α-SMA+ pericyte on CD31+ endothelial cell,"[2]; 10 mg/kg and 30 mg/kg, vs vehicle",significant increase
same,HIF-1α expression in tumor tissues,[2]; IHC,significant decline
same,Tumor necrosis (H&E),[2]; high-dose 30 mg/kg,tendency towards increased necrosis
same,Tumor necrosis (H&E),[2]; low-dose 10 mg/kg,reduced necrotic areas
same,HUVEC apoptosis,HUVEC [3],no apoptosis was observed
same,"LD50(µM,48 h)",zebrafish embryos,1.10 ± 0.12 µM
same,ROS levels,HUVEC [4],gradually increased with increasing drug concentration
